# In US6774263B1, “Pharmaceutically active compound and methods of use” (Cambridge Neuroscience, Inc., priority 1997, dated 2004):
# Counter-ions that a name gives are not always drawn.
# Tests used:
# rats [1] = experiment: Rat rotarod motor coordination test; type: in vivo
# Procedure: The effects of the hydrochloride salt of (t)-N-(2-chloro-5-methylthiophenyl)-N′-(3-methylsulfinylphenyl)-N′-methylguanidine (compound (I)) on motor coordination were assessed using the rotarod test. Drug solutions were administered i.v. through the tail vein of test rats in a volume of 5.0 ml/kg at a rate of 1 ml/min. The percentage of animals in each treatment group that fell from the rotarod at each of the four time points tested is summarized in the following Table I. Control was 20% C.D. N in each of the Tables below specifies the number of animals in each test group.
# The latency for falling from the rotarod was statistically analyzed using analysis of variance (ANOVA), and a Neumann Keuls post-hoc was applied when appropriate. […] In FIG. 1, “**” designates P<0.01 and “***” designates P<0.001.
# (§1) The acetate salt of (−)-N-(2-chloro-5-methylthiophenyl)-N′-(3-methylsulfinylphenyl)-N′-methylguanidine was also tested in the same rotarod assay protocol as described in Part A above. Drug solutions were administered i.v. through the tail vein in a volume of 5 ml/kg at a rate of 1 ml/min. In Table II, Control (1) is 60 mM Acetate Buffer in 0.3M mannitol at 0.06 and 0.125 mg/kg doses and Control (2) is 60 mM Acetate Buffer in 0.3M mannitol at 0.25 and 0.5 mg/kg doses.
# as §1, with “(+)-N-(2-chloro-5-methylthiophenyl)-N′-(3-methylsulfinylphenyl)-N′-methylguanidine” for “(−)-N-(2-chloro-5-methylthiophenyl)-N′-(3-methylsulfinylphenyl)-N′-methylguanidine”, “III,” for “II,”
# The results for compounds of the invention can be compared to those obtained for MK-801, i.e. (+)-5-methyl-10,11-dihydro-5H-dibenzo[a,d]cyclohepten-5,10-imine maleate. In the rotarod test for MK-801, drug solutions were administered i.v. through the tail vein of each test rat in a volume of 5 ml/kg at a rate of 1 ml/min. The control was 0.9% saline solution.
# rats [2] = experiment: Irwin general behavior screen; type: in vivo, rat; details: times in minutes
# From the text: See S. Irwin, Animal and Clinical Pharmacologic Techniques in Drug Evaluation, pages 36-54 (Year Book Medical Publishers, Chicago), which details the protocol of the Irwin behavior screen.
# rats [3] = experiment: Rat MCAO ischemia model; type: in vivo; details: in thirds at 10 min, 1 h and 2 h
# Procedure: A. The hydrochloride salt of (±)-N-(2-chloro-5-methylthiophenyl)-N′-(3-methylsulfinylphenyl)-N′-methylguanidine (compound (I)) was tested in the rat MCAO ischemia model with % reduction in total lesion volume (mm^3) determined by the following protocol.
# Rats were anaesthetized with isoflurane and focal ischemia was induced by directly ligating the main trunk of MCA using a bipolar electrocoagulor. Coronal sections (seven sections, 2.0 mm intervals) were collected and incubated in 2,3,5-triphenyltetrazolium chloride (TTC) solution for 15 minutes at 37° C., then fixed in 4% paraformaldehyde solution in the dark at 4° C. for at least 48 hours. Seven sections of each brain were photographed and analyzed. The areas that were not stained red with TTC were measured as infarction.
# The test animals were treated with the test compound and control (mannitol) as follows. Ten minutes after the MCAO incident the test animals were administered (i.v. infusion/10 minutes) with one third of the total dose of the test compound (total doses specified below); 1 hour after that first dosing the test animals were given another one third of the total dose of the test compound; and then 2 hours after that first dosing the test animals were given another one third of the total dose of the test compound. Mannitol was administered to the control group at the first dosing only.
# Sprague-Dawley rats with body weights of 270-320 grams were used in the study.
# rat pups = experiment: Rat pup hypoxia-ischemia model; type: in vivo
# Procedure: A. The hydrochloride salt of (±)-N-(2-chloro-5-methylthiophenyl)-N′-(3-methylsulfinylphenyl)-N′-methylguanidine was tested in the rat pup hypoxia-ischemia model with % reduction in total lesion volume determined at the specified test dose. A rat pup hypoxia-ischemia assay protocol of the following protocol was employed.
# 8 day-old rat pups weighing 17-23 grams were anaesthetized with isoflurane and the left common carotid artery ligated. Immediately prior to the hypoxia-ischemia (H-I) insult a test group of animals was injected intraperitoneally with 2 mg/kg, 5 mg/kg or 10 mg/kg of the test compound and a control group was treated with a corresponding dose of mannitol. Then, immediately after the H-I insult, the animals received a second equivalent dose, i.e. the test group of animals was injected intraperitoneally with 2 mg/kg (total 4 mg/kg administered in the two doses), 5 mg/kg (total 10 mg/kg administered in the two doses) or 10 mg/kg (total 20 mg/kg administered in the two doses) of the test compound and a control group was treated with a corresponding dose of mannitol. The animals were then allowed to recover for 1-2 hours and then exposed to 7.8% O2 in nitrogen for 78 minutes in an incubator at 36.5° C. The rat pups were returned to mothers immediately after the H-I insult. The animals were sacrificed two days after H-I insult, their brain was removed and cut into four 2 mm thick slices prior to staining with 2% 2,3,5-triphenyltetrazolium chloride (TTC) solution. The sections were then fixed with 4% paraformaldehyde solution in the dark at 4° C. for at least 48 hours. Four sections from each brain were imaged and analyzed using the IPLab system. The lesion area which was not stained red with TTC was measured as infarction.
# B. The acetate salt of (+)-N-(2-chloro-5-methylthiophenyl)-N′-(3-methylsulfinylphenyl)-N′-methylguanidine was also tested in the rat pup hypoxia-ischemia model with % reduction in total lesion volume determined by the same protocol as specified in Part A above, except the rat pups were exposed to 7.8% O2 in nitrogen for 85 minutes.
# [4] = cited from earlier work
# mouse = details: in vivo; cited from earlier work
# [5] = total dose 2.25 mg/kg i.v. infusion
# [6] = total dose 4.5 mg/kg i.v. infusion, 4.5 mg/kg
# [7] = total dose 9 mg/kg i.v. infusion, 9 mg/kg
smiles,measurement,setting,value
"CSc1ccc(Cl)c(NC(=N)N(C)c2cccc([S+](C)[O-])c2)c1 (racemic) [compound (I), N-(2-chloro-5-methylthiophenyl)-N′-(3-methylsulfinylphenyl)-N′-methylguanidine]",lethality of pre-testing doses,"rats [1]; rat, in vivo",lethal
same,behavioral effects observed in Irwin screen,rats [2]; 4 mg/kg i.v.,"excitation (120-180′) sterotypies (sniffing 60-180′) fore-paw treading (120′) loss of traction (2 of 3, 120′)"
same,behavioral effects observed in Irwin screen,rats [2]; 16 mg/kg i.v.,excitation (30-180′) sterotypies (head-weaving to 180′) fore-paw treading (to 180′) loss of traction (to 180′) hypothermia
same,% reduction in total lesion volume,rats [3]; [5],24%
same,% reduction in total lesion volume,rats [3]; total dose 4.5 mg/kg i.v. infusion,32%
same,% reduction in total lesion volume,rats [3]; total dose 9 mg/kg i.v. infusion,46%
same,% reduction in total lesion volume,"rat pups; i.p. total dose of 10 mg/kg, 7.8% O2 for 78 minutes",60%
same,% reduction in total lesion volume,"rat pups; i.p. total dose of 20 mg/kg, 7.8% O2 for 78 minutes",100%
"CSc1ccc(Cl)c(NC(=N)N(C)c2cccc([S+](C)[O-])c2)c1 (single isomer, unassigned; (+)) [compound (IB), (+)-N-(2-chloro-5-methylthiophenyl)-N′-(3-methylsulfinylphenyl)-N′-methylguanidine]",latency for falling from the rotarod (falling times),"rats [1]; rat, in vivo",no statistically significant differences
same,latency for falling from the rotarod vs control groups,"rats [1]; rat, in vivo",significantly shorter latencies
same,% reduction in total lesion volume,rats [3]; [5],23%
same,% reduction in total lesion volume,rats [3]; [6],32%
same,% reduction in total lesion volume,rats [3]; [7],34%
same,% reduction in total lesion volume,"rat pups; i.p. total dose of 10 mg/kg, 7.8% O2 for 85 minutes",78%
same,% reduction in total lesion volume,"rat pups; i.p. total dose of 20 mg/kg, 7.8% O2 for 85 minutes",93%
"CSc1ccc(Cl)c(NC(=N)N(C)c2cccc([S+](C)[O-])c2)c1 (single isomer, unassigned; (-)) [compound (IA), (−)-N-(2-chloro-5-methylthiophenyl)-N′-(3-methylsulfinylphenyl)-N′-methylguanidine]",latency for falling from the rotarod (falling times),"rats [1]; rat, in vivo",no statistically significant differences
same,latency for falling from the rotarod vs control groups,"rats [1]; rat, in vivo",significantly shorter latencies
same,% reduction in total lesion volume,rats [3]; [6],1%
same,% reduction in total lesion volume,rats [3]; [7],22%
"C[C@]12N[C@H](Cc3ccccc31)c1ccccc12 [MK-801, (+)-5-methyl-10,11-dihydro-5H-dibenzo[a,d]cyclohepten-5,10-imine maleate]",percentage of animals that fell from the rotarod,"rats [1]; 0.01 mg/kg i.v., 15 min.",38%
same,percentage of animals that fell from the rotarod,"rats [1]; 0.01 mg/kg i.v., 60 min.",13%
same,percentage of animals that fell from the rotarod,"rats [1]; 0.01 mg/kg i.v., 120 min.",25%
same,percentage of animals that fell from the rotarod,"rats [1]; 0.05 mg/kg i.v., 15 min.",86%
same,percentage of animals that fell from the rotarod,"rats [1]; 0.05 mg/kg i.v., 60 min.",57%
same,percentage of animals that fell from the rotarod,"rats [1]; 0.05 mg/kg i.v., 120 min.",29%
same,results in in vivo models of stroke,[4],good results
same,activity in mouse audiogenic tests,mouse,good activity
